# Test results as given in patent publication US20100286136A1, “DIHYDRONAPHTHYRIDINYL AND RELATED COMPOUNDS FOR USE IN TREATING OPHTHALMOLOGICAL DISORDERS” (priority 2009, published 2010).
# Target: T1, CCR2b (Homo sapiens, UniProt P41597)
# T1 construct: host or cells: AequoScreen CCR2b cells
# T1 sequence (P41597 1-360 isoform P41597-2): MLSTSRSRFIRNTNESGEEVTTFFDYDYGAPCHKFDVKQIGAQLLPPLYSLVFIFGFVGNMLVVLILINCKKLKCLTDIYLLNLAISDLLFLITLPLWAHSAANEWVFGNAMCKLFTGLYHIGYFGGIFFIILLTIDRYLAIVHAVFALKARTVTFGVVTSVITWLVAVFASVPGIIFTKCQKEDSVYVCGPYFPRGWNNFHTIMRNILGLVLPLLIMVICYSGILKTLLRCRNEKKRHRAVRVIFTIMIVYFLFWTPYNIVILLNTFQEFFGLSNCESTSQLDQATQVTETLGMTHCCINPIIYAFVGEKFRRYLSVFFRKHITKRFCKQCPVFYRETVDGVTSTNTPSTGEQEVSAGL
# Assay: AequoScreen CCR2b calcium flux assay, antagonist mode against reference agonist MCP-1
# Assay type: cell-based
# Conditions: AequoScreen CCR2b (FAST-060A) cells; inhibition of reference agonist MCP-1 at its EC80; read-out: IC50 (μM) Ca^++flux
# Method: The biological activity of the compounds described herein can be evaluated using assays known in the art, such as the AequoScreen™ assay.
# AequoScreen™ CCR2b (FAST-060A) cells grown to mid-log phase in culture media without antibiotics are detached with PBS-EDTA, centrifuged and resuspended in assay buffer (DMEM/HAM's F12 with HEPES, without phenol red+0.1% BSA protease free) at a concentration of 1×10^6 cells/mL. Cells are incubated at room temperature for at least 4 hours with coelenterazine h. Dose response curves are performed before testing. The reference agonist is MCP-1.
# For agonist testing, 50 μL of cell suspension is mixed with 50 μL of test compound in a 96-well plate. The resulting emission of light is recorded using a Hamamatsu Functional Drug Screening System 6000 (FDSS 6000).
# Following an incubation of 15 minutes after the first injection, 100 μL of the resulting cell suspension containing the test compound is mixed with 100 μL of the reference agonist in the 96 well test plate. The resulting emission of light is recorded using the same luminometer as for agonist testing.
# Agonist activity of a test compound can be expressed as a percentage of the activity of the reference agonist at its EC100 concentration. Antagonist activity of a test compound can be expressed as a percentage of the inhibition of reference agonist activity at its EC80 concentration.
row,IC50 [µM],SMILES
1,< 0.2,"Cn1c(=O)sc2ccc(CN3CCC(CC4CC4)(C(=O)N4CCc5ncc(C(F)(F)F)cc5C4)C3)cc21 (stereo not drawn) [Example 11, 5-((3-(Cyclopropylmethyl)-3-(3-(trifluoromethyl)-5,6,7,8-tetrahydro-1,6-naphthyridine-6-carbonyl)pyrrolidin-1-yl)methyl)-3-methylbenzo[d]thiazol-2(3H)-one]"
2,0.2 to 1,"O=C(N1CCc2ncc(C(F)(F)F)cc2C1)C1(CC2CC2)CCN(Cc2ccc3sc(=O)[nH]c3c2)C1 (stereo not drawn) [Example 12, 5-((3-(Cyclopropylmethyl)-3-(3-(trifluoromethyl)-5,6,7,8-tetrahydro-1,6-naphthyridine-6-carbonyl)pyrrolidin-1-yl)methyl)benzo[d]thiazol-2(3H)-one]"
3,> 1,"O=C(N1CCc2ncc(C(F)(F)F)cc2C1)C1(CC2CC2)CCN(Cc2ccc3ccc(=O)[nH]c3c2)C1 (stereo not drawn) [Example 15, 7-((3-(Cyclopropylmethyl)-3-(3-(trifluoromethyl)-5,6,7,8-tetrahydro-1,6-naphthyridin-6-carbonyl)pyrrolidin-1-yl)methyl)quinolin-2(1H)-one]"
4,> 1,"CC(c1ccc2c(c1)n(C)c(=O)n2C)N1CCC(CC2CC2)(C(=O)N2CCc3ncc(C(F)(F)F)cc3C2)C1 (stereo not drawn) [Example 16, 5-(1-(3-(Cyclopropylmethyl)-3-(3-(trifluoromethyl)-5,6,7,8-tetrahydro-1,6-naphthyridine-6-carbonyl)pyrrolidin-1-yl)ethyl)-1,3-dimethyl-1H-benzo[d]imidazol-2(3H)-one]"
5,> 1,"O=C(N1CCc2ncc(C(F)(F)F)cc2C1)C1(CC2CC2)CCN(Cc2ccc3[nH]ncc3c2)C1 (stereo not drawn) [Example 17, (1-((1H-Indazol-5-yl)methyl)-3-(cyclopropylmethyl)pyrrolidin-3-yl)(3-(trifluoromethyl)-7,8-dihydro-1,6-naphthyridin-6(5H)-yl)methanone]"
6,> 1,"Cn1c(=O)ccc2cc(CN3CCC(CC4CC4)(C(=O)N4CCc5ncc(C(F)(F)F)cc5C4)C3)ccc21 (stereo not drawn) [Example 22, 6-((3-(Cyclopropylmethyl)-3-(3-(trifluoromethyl)-5,6,7,8-tetrahydro-1,6-naphthyridine-6-carbonyl)pyrrolidin-1-yl)methyl)-1-methylquinolin-2(1H)-one]"
7,< 0.2,"Cn1c(=O)oc2ccc(CN3CCC(CC4CC4)(C(=O)N4CCc5ncc(C(F)(F)F)cc5C4)C3)cc21 (stereo not drawn) [Example 23, 5-((3-(Cyclopropylmethyl)-3-(3-(trifluoromethyl)-5,6,7,8-tetrahydro-1,6-naphthyridine-6-carbonyl)pyrrolidin-1-yl)methyl)-3-methylbenzo[d]oxazol-2(3H)-one]"
8,< 0.2,"CC(C)CC1(C(=O)N2CCc3ncc(C(F)(F)F)cc3C2)CCN(Cc2ccc3oc(=O)n(C)c3c2)C1 (stereo not drawn) [Example 24, 5-((3-Isobutyl-3-(3-(trifluoromethyl)-5,6,7,8-tetrahydro-1,6-naphthyridine-6-carbonyl)pyrrolidin-1-yl)methyl)-3-methylbenzo[d]oxazol-2(3H)-one]"
9,< 0.2,"COCC1(C(=O)N2CCc3ncc(C(F)(F)F)cc3C2)CCN(Cc2ccc3ccc(=O)n(C)c3c2)C1 (stereo not drawn) [Example 25, 7-((3-(Methoxymethyl)-3-(3-(trifluoromethyl)-5,6,7,8-tetrahydro-1,6-naphthyridine-6-carbonyl)pyrrolidin-1-yl)methyl)-1-methylquinolin-2(1H)-one]"
10,< 0.2,"COCC1(C(=O)N2CCc3ncc(C(F)(F)F)cc3C2)CCN(Cc2ccc3sc(=O)n(C)c3c2)C1 (stereo not drawn) [Example 28, 5-((3-(Methoxymethyl)-3-(3-(trifluoromethyl)-5,6,7,8-tetrahydro-1,6-naphthyridine-6-carbonyl)pyrrolidin-1-yl)methyl)-3-methylbenzo[d]thiazol-2(3H)-one]"
11,< 0.2,"COCC1(C(=O)N2CCc3ncc(C(F)(F)F)cc3C2)CCN(C(C)c2ccc3c(c2)n(C)c(=O)n3C)C1 (stereo not drawn) [Example 29, 5-(1-(3-(Methoxymethyl)-3-(3-(trifluoromethyl)-5,6,7,8-tetrahydro-1,6-naphthyridine-6-carbonyl)pyrrolidin-1-yl)ethyl)-1,3-dimethyl-1H-benzo[d]imidazol-2(3H)-one]"
12,< 0.2,"COCC1(C(=O)N2CCc3ncc(C(F)(F)F)cc3C2)CCN(Cc2ccc3c(c2)N(C)C(=O)CO3)C1 (stereo not drawn) [Example 32, 6-((3-(Methoxymethyl)-3-(3-(trifluoromethyl)-5,6,7,8-tetrahydro-1,6-naphthyridine-6-carbonyl)pyrrolidin-1-yl)methyl)-4-methyl-2H-benzo[b][1,4]oxazin-3(4H)-one]"
13,< 0.2,"COCC1(C(=O)N2CCc3ncc(C(F)(F)F)cc3C2)CCN(C(C)c2ccc3c(c2)N(C)C(=O)CO3)C1 (stereo not drawn) [Example 33, 6-(1-(3-(Methoxymethyl)-3-(3-(trifluoromethyl)-5,6,7,8-tetrahydro-1,6-naphthyridine-6-carbonyl)pyrrolidin-1-yl)ethyl)-4-methyl-2H-benzo[b][1,4]oxazin-3(4H)-one]"
14,< 0.2,"COCC1(C(=O)N2CCc3ncc(C(F)(F)F)cc3C2)CCN(C(C)c2ccc3oc(=O)n(C)c3c2)C1 (stereo not drawn) [Example 34, 5-(1-(3-(Methoxymethyl)-3-(3-(trifluoromethyl)-5,6,7,8-tetrahydro-1,6-naphthyridine-6-carbonyl)pyrrolidin-1-yl)ethyl)-3-methylbenzo[d]oxazol-2(3H)-one]"
15,0.2 to 1,COCC1(C(=O)N2CCc3ncc(C(F)(F)F)cc3C2)CCN(C2CCC(O)(C3CC3)CC2)C1 (stereo not drawn) [Example 35]
16,0.2 to 1,"COCC1(C(=O)N2CCc3ncc(C(F)(F)F)cc3C2)CCN(Cc2cc3c(ccc(=O)n3C)cc2Cl)C1 (stereo not drawn) [Example 36, 6-Chloro-7-((3-(methoxymethyl)-3-(3-(trifluoromethyl)-5,6,7,8-tetrahydro-1,6-naphthyridine-6-carbonyl)pyrrolidin-1-yl)methyl)-1-methylquinolin-2(1H)-one]"
17,< 0.2,"COCC1(C(=O)N2CCc3ncc(C(F)(F)F)cc3C2)CCN(Cc2cc3c(cc2Cl)oc(=O)n3C)C1 (stereo not drawn) [Example 37, 6-Chloro-5-((3-(methoxymethyl)-3-(3-(trifluoromethyl)-5,6,7,8-tetrahydro-1,6-naphthyridine-6-carbonyl)pyrrolidin-1-yl)methyl)-3-methylbenzo[d]oxazol-2(3H)-one]"
18,> 1,"COCC1(C(=O)N2CCc3ncc(C(F)(F)F)cc3C2)CCN(Cc2ccc3c(c2)n(C)c(=O)n3C)C1 (stereo not drawn) [Example 38, 5-((3-(Methoxymethyl)-3-(3-(trifluoromethyl)-5,6,7,8-tetrahydro-1,6-naphthyridine-6-carbonyl)pyrrolidin-1-yl)methyl)-1,3-dimethyl-1H-benzo[d]imidazol-2(3H)-one]"
19,< 0.2,"COCC1(C(=O)N2CCc3ncc(C(F)(F)F)cc3C2)CCN(Cc2ccc3oc(=O)n(C)c3c2)C1 (stereo not drawn) [Example 39, 5-((3-(Methoxymethyl)-3-(3-(trifluoromethyl)-5,6,7,8-tetrahydro-1,6-naphthyridine-6-carbonyl)pyrrolidin-1-yl)methyl)-3-methylbenzo[d]oxazol-2(3H)-one]"
20,< 0.2,"CCOCC1(C(=O)N2CCc3ncc(C(F)(F)F)cc3C2)CCN(Cc2ccc3oc(=O)n(C)c3c2)C1 (stereo not drawn) [Example 45, 5-((3-(Ethoxymethyl)-3-(3-(trifluoromethyl)-5,6,7,8-tetrahydro-1,6-naphthyridine-6-carbonyl)pyrrolidin-1-yl)methyl)-3-methylbenzo[d]oxazol-2(3H)-one]"
21,< 0.2,"COCC1(C(=O)N2CCc3ccc(C(F)(F)F)cc3C2)CCN(Cc2ccc3oc(=O)n(C)c3c2)C1 (stereo not drawn) [Example 46, 5-((3-(methoxymethyl)-3-(7-(trifluoromethyl)-1,2,3,4-tetrahydroisoquinoline-2-carbonyl)pyrrolidin-1-yl)methyl)-3-methylbenzo[d]oxazol-2(3H)-one]"
22,< 0.2,"CC(C)C1(C(=O)N2CCc3ncc(C(F)(F)F)cc3C2)CCN(Cc2ccc3oc(=O)n(C)c3c2)C1 (stereo not drawn) [Example 47, 5-((3-isopropyl-3-(3-(trifluoromethyl)-5,6,7,8-tetrahydro-1,6-naphthyridine-6-carbonyl)pyrrolidin-1-yl)methyl)-3-methylbenzo[d]oxazol-2(3H)-one]"
23,0.2 to 1,"Cn1c(=O)oc2ccc(CN3CCC(CC#N)(C(=O)N4CCc5ncc(C(F)(F)F)cc5C4)C3)cc21 (stereo not drawn) [Example 48, 2-(1-((3-methyl-2-oxo-2,3-dihydrobenzo[d]oxazol-5-yl)methyl)-3-(3-(trifluoromethyl)-5,6,7,8-tetrahydro-1,6-naphthyridine-6-carbonyl)pyrrolidin-3-yl)acetonitrile]"
24,> 1,"Cn1c(=O)oc2ccc(CN3CCC(CO)(C(=O)N4CCc5ncc(C(F)(F)F)cc5C4)C3)cc21 (stereo not drawn) [Example 49, 5-((3-(Hydroxymethyl)-3-(3-(trifluoromethyl)-5,6,7,8-tetrahydro-1,6-naphthyridine-6-carbonyl)pyrrolidin-1-yl)methyl)-3-methylbenzo[d]oxazol-2(3H)-one]"
